Each structure is given as a SMILES string.

In this experiment the test system is pulmonary artery rings. Put plainly: Ex vivo myography of pulmonary artery rings, acute SUL-150 pre-incubation, phenylephrine-induced vasoconstriction. Also on record: species or system rat. Conditions: 10^−4 M SUL-150 pre-incubation. How it is done: The fourth-degree branching intralobar pulmonary arteries were carefully dissected under a Leica S4E stereomicroscope as described before. Arterial ring segments (2 mm length) were mounted in a Mulvany-type wire myograph system (model #610M, Danish Myo Technology, Aarhus, Denmark) using Ø40 µm steel wire. Rings were preserved in myography chambers filled with aerated Krebs buffer (pH 7.4) at 37 °C. After 20 min equilibration, rings were stretched to 1.8 kPa using the DMT Normalization Procedure and allowed to equilibrate for an additional 20 min. Analogue–digital signal conversion was performed using PowerLab 8/30, and a myogram was recorded in PowerLab Chart v 5.3 (AD Instruments, Oxford, UK). To assess the acute effects of SUL-150 on vasoconstriction, arterial rings were pre-constricted with 60 mM KCl and, following washout and stabilization, incubated with vehicle (0.1% DMSO) or SUL-150 (10^−4 M) for 20 min. Next, constriction responses to phenylephrine (phenylephrine, Sigma-Aldrich, St. Louis, MO, USA) were recorded in the dose range of 3 × 10^−9 to 3 × 10^−5 M. To assess the chronic effects of SUL-150 treatment, a similar protocol was followed, leaving out the preincubation with vehicle or SUL-150. Isometric responses were calculated as % of maximal KCl-induced constriction, and dose–response curves were recorded to determine the efficacy (Emax) and potency (EC50) of phenylephrine to induce vasoconstriction.

For `Cc1c(C)c2c(c(C)c1O)CC[C@](C)(C(=O)N1CCNCC1)O2` [SUL-150, (R)-(6-hydroxy-2,5,7,8-tetramethylchroman-2-yl)(piperazin-1-yl)methanone], the “Emax of phenylephrine-induced vasoconstriction after SUL-150 pre-incubation” value is listed as 11.03 % of max (pulmonary artery rings of PAH rats (day 21 post-MCT)) and 15.6 % of max (pulmonary artery rings of sham rats, % of maximal KCl-induced constriction).

Source of the values: PMC12346692, “SUL-150 Limits Vascular Remodeling and Ventricular Failure in Pulmonary Arterial Hypertension” (International Journal of Molecular Sciences, 2025).
